The target in this test is T1, human HSL (Homo sapiens, UniProt Q05469).
T1 construct: overlapping PCR to generate a full length human HSL ORF with a 3′-His6 tag; His6 (C); made in house; host or cells: High 5 insect cells (baculovirus, pFast-BAC)
T1 sequence (Q05469 1-1076): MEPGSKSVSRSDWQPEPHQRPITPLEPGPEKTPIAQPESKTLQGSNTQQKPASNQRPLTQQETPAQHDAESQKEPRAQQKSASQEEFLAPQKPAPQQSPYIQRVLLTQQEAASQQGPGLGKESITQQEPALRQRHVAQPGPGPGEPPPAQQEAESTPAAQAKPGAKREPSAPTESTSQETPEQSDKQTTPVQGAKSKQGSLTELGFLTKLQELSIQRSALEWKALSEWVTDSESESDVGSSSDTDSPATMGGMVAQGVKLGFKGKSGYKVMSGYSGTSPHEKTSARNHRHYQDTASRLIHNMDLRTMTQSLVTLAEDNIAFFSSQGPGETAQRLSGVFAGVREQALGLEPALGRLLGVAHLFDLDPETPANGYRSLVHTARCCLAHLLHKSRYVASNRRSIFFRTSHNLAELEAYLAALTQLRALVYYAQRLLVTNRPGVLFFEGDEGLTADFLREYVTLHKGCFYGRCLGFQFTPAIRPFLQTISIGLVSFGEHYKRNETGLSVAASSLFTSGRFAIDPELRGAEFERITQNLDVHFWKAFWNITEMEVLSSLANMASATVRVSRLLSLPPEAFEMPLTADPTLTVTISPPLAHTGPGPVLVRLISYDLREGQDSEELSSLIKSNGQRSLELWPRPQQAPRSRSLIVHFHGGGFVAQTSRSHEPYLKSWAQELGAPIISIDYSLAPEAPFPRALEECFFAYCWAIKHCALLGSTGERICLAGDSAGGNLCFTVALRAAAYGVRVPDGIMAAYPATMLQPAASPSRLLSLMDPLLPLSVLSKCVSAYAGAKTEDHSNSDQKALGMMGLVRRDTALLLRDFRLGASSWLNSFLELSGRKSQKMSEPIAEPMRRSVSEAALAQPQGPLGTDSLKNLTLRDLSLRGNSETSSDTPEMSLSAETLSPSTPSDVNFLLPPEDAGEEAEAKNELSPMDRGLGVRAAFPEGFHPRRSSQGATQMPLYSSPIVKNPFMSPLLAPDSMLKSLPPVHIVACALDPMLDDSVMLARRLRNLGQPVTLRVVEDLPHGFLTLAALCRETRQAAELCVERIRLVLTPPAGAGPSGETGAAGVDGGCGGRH
The experiment in a line: Human hormone-sensitive lipase (HSL) enzyme inhibition assay (colorimetric, DMPT substrate). Type of test: biochemical. The conditions noted are these: human full length HSL-His6; 2,3-dimercapto-1-propanol tributyrate substrate; 37° C., 20 minutes; read-out: HSL hum IC50. In a few lines: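 Full-length human HSL with C-terminal His6, expressed in baculovirus/High 5 cells and Ni-NTA purified, was added from a 15 µg/ml solution to 1.5 mM DMPT in 100 mM MOPS pH 7.2, 0.2 mg/ml fatty acid-free BSA. After 20 min at 37 °C, DTNB with SDS/Triton X-100 was added, 15 min RT, and A405 read.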

For orientation: IC50 means the concentration needed to halve the response being measured. On to `Cc1ccc(S(=O)(=O)N2CC[C@H](C(=O)Nc3ccc(OC(F)(F)F)cc3)C[C@H]2CO)cc1` (racemic) [Example 42, (2S,4S)-2-Hydroxymethyl-1-(toluene-4-sulfonyl)-piperidine-4-carboxylic acid (4-trifluoromethoxy-phenyl)-amide and (2R,4R)-2-Hydroxymethyl-1-(toluene-4-sulfonyl)-piperidine-4-carboxylic acid (4-trifluoromethoxy-phenyl)-amide], for which the IC50 was found to be 40 nM. In the case of `CC(C)Oc1ccc(NC(=O)C2CCN(S(=O)(=O)c3ccccc3)CC2)cc1` [Example 47, 1-Benzenesulfonyl-piperidine-4-carboxylic acid (4-isopropoxy-phenyl)-amide], the 50% inhibitory concentration (IC50) was 70 nM.

Regarding `Cc1ccc(S(=O)(=O)N2CCC(C(=O)Nc3ccc(OC(C)C)cc3)CC2)cc1` [Example 7, 1-(Toluene-4-sulfonyl)-piperidine-4-carboxylic acid (4-isopropoxy-phenyl)-amide], the IC50 stood at 70 nM. The result for `Cc1ccc(S(=O)(=O)N2CCC(C(=O)NCC3(c4ccc(Cl)cc4)CC3)CC2)cc1` [Example 64, 1-(Toluene-4-sulfonyl)-piperidine-4-carboxylic acid [1-(4-chloro-phenyl)-cyclopropylmethyl]-amide] reads 1490 nM; that for `Cc1ccc(S(=O)(=O)N2CCC(C(=O)Nc3ccc(OCC(O)C(F)(F)F)cc3)CC2)cc1` (racemic) [Example 52, (rac)-1-(Toluene-4-sulfonyl)-piperidine-4-carboxylic acid [4-(3,3,3-trifluoro-2-hydroxy-propoxy)-phenyl]-amide], 860 nM. The same measure for `Cc1ccc(S(=O)(=O)N2CCC(F)(C(=O)Nc3ccc(OC(F)(F)F)cc3)CC2)cc1` [Example 18, 4-Fluoro-1-(toluene-4-sulfonyl)-piperidine-4-carboxylic acid (4-trifluoromethoxy-phenyl)-amide]: 550 nM. In the case of `CCn1nc(NC(=O)C2CCN(S(=O)(=O)c3ccccc3)CC2)cc1C(F)(F)F` [Example 35, 1-Benzenesulfonyl-piperidine-4-carboxylic acid (1-ethyl-5-trifluoromethyl-1H-pyrazol-3-yl)-amide], the IC50 amounted to 1130 nM.

(Values after patent publication US8258158B2 (Hoffmann-La Roche Inc., priority 2009, dated 2012).)
